Legend:
glutathione = test: Glutathione quantification; type: cell-based; details: MCF10A, full or amino acid-free media, 24 hours; 15 μM particles or 400 μM BSO
Method: For glutathione measurements, HT-1080 cells were plated on 6 cm cell culture dishes, incubated with 15 μM α-MSH-tagged nanoparticles in amino acid-free DMEM+10% dialyzed FBS and harvested approximately 2 hours before the expected time of death. As controls, cells were treated with a mix of 3 parts full or amino acid-free DMEM and 1 part H2O, or 100 μM BSO in full media. Cells were washed 3× with cold PBS and harvested through cell scraping in 50 μL cold lysis buffer. Protein concentrations were measured using the BCA assay and sample volumes were adjusted so that each had the same final protein concentration. Total glutathione was measured using the Glutathione Assay Kit (Cayman Chemicals, 703002) and reduced glutathione was measured using the QuantiChrom™ Glutathione Assay Kit (BioAssay Systems, DIGT-250) according to manufacturer's instructions.

[1] = test system: MCF10A human mammary epithelial cells; test: Cell death (Sytox green+) by time-lapse microscopy, MCF10A; type: cell-based; details: for effect on nanoparticle-induced cell death / effect on α-MSH-PEG-C′ dot-induced cell death: AA-st plus 15 μM α-MSH-PEG-C′ dots, 40 hours; for effect on nanoparticle-induced cell death: 50 μM BHA, 200 μM ascorbic acid, 100 μM Trolox, 10 mM NAC, 5 mM GSH; for effect on α-MSH-PEG-C′ dot-induced cell death: inhibitor 1 μM
Method: (§1) MEF and HT1080 cells were cultured in Dulbecco's modified Eagle's medium (DMEM) (MSKCC Media Preparation Facility) supplemented with 10% fetal bovine serum (FBS, Sigma, St. Louis, Mo.) with penicillin/streptomycin (Corning, Corning, N.Y.). MCF10A cells were cultured in DMEM/F12 (Gibco, Grand Island, N.Y.) supplemented with 5% horse serum (Atlanta Biologicals, Flowery Branch, Ga.), 20 ng/ml EGF (Peprotech, Rocky Hill, N.J.), 10 μg/ml insulin (Sigma), 0.5 μg/ml hydrocortisone (Sigma), and 100 ng/ml cholera toxin (Sigma) with penicillin/streptomycin. M21, BxPC3, H1650, and 786-O cells were cultured in RPMI-1640 (Gibco) supplemented with 10% FBS with penicillin/streptomycin. SKOV3 cells were cultured in McCoy's 5a modified medium (Gibco) supplemented with 10% FBS with penicillin/streptomycin. Amino acid-free medium was prepared by dialyzing heat-inactivated FBS (for MEF, HT1080, M21, BxPC3, H1650, and SKOV3 cells) or horse serum (for MCF10A cells) for 4 h, followed by overnight incubation at 4° C. in phosphate-buffered saline (PBS) in MWCO 3500 dialysis tubing (21-152-9; Fisherbrand, Pittsburgh, Pa.) and addition to base media prepared without amino acids. PRetro-Lamp1-GFP was introduced into M21 cells by retroviral transduction, and stable cell lines were selected with puromycin (2 μg ml^−1).
(§2) NIS Elements software (Nikon, Melville, N.Y.) was used.

lipid ROS = test: C11-BODIPY imaging of lipid ROS before cell death; type: cell-based; details: erastin 5 μM plus liproxstatin-1, 6 hours after control cells underwent cell death
From the text: as §2

HT-1080 tumors = test: HT-1080 flank xenograft, multi-dose i.v. particle treatment; type: in vivo, mice
Method: All animal experiments were performed in accordance with protocols approved by the Institutional Animal Care and Use Committee of Memorial Sloan-Kettering Cancer Center and followed NIH guidelines for animal welfare. Human melanoma (M21) xenografts were generated on the shaved flanks of immunodeficient male SCID/Beige (C.B-17/IcrHsd-Prkdc^scidLyst^bg-J) mice (6-8 weeks old; Harlan Laboratories, South Easton, Mass.). Human sarcoma HT1080 and 786-O flank xenografts[…]) were additionally generated using the same model for intravenous particle injection. Average initial tumor volumes of 45-75 mm^3 were used for all experiments.
Five million M21 cells, cultured in serum-supplemented media, were subcutaneously implanted into the right flank of mice using a 23-gauge trocar needle to establish melanoma xenografts 2 days after particle exposure (n=3) or without exposure (n=3). […] Tumor sizes were measured using calipers over the treatment interval. […] Two perpendicular diameters (d1≤d2) of the tumor used to calculate the tumor volume (V; 4/3·π·d1^2·d2/8) were measured with calipers daily following the injection of cells.
Volume-time profiles were compared between the two treatment groups using robust standard errors calculated using by a generalized estimating equations approach. […]

[2] = test system: mouse embryo fibroblasts (MEF); test: Cell death (Sytox green+) by time-lapse microscopy, MEF; type: cell-based; details: wt MEFs, 100 ng/ml TNFα, 1 μg/ml CHX and 20 μM zVAD, plus 30 μM Nec-1
Method: as §1, §2

amino acid-starved cells = details: amino acid-starvation conditions, FAC 400 μM
[3] = test system: ferritin heavy chain (FTH1); test: Ferritin heavy chain western blot; type: cell-based; details: amino acid-starved cells, 24 hours; 15 μM particles, FAC 400 μM, DFO 100 μM

## CCCCS(=N)(=O)CCC(N)C(=O)O (stereo not shown) [BSO, Buthionine sulphoximine]
glutathione
  reduced glutathione (GSH) levels: reduce glutathione levels

## CC(=O)N[C@@H](CS)C(=O)O [N-acetylcysteine]
[1]
  effect on nanoparticle-induced cell death: inhibited

## O=C1O[C@H]([C@@H](O)CO)C(O)=C1O [ascorbic acid, Ascorbic acid]
[1]
  effect on nanoparticle-induced cell death: inhibited

## COc1ccc(O)c(C(C)(C)C)c1 [butylated hydroxyanisole, Butylated hydroxyanisole]
[1]
  effect on nanoparticle-induced cell death: inhibited

## C/C=C/[C@H]1O[C@@](O)([C@@H](C)[C@H](O)[C@H](C)[C@H]2OC(=O)/C(OC)=C/C(C)=C/[C@@H](C)[C@@H](O)[C@@H](CC)[C@@H](O)[C@H](C)C/C(C)=C/C=C/[C@@H]2OC)C[C@@H](O[C@H]2C[C@@H](O)[C@H](OC(N)=O)[C@@H](C)O2)[C@@H]1C [concanamycin A, Concanamycin A]
[1]; amino acid-free media, 100 nM ConA
  cell death morphology: undergo cell death with morphologic features of apoptosis

## C[C@@H]1C[C@@H]([C@H](O)CC2CC(=O)NC(=O)C2)C(=O)[C@@H](C)C1 [cycloheximide, Cycloheximide]
[1]; 50 μg/ml cycloheximide
  temporal pattern of apoptotic cell death: asynchronous pattern of cell death

## CCOC(=O)c1ccc(NC2CCCCC2)c(N)c1 [ferrostatin-1, Ferrostatin-1]
[1]
  effect on α-MSH-PEG-C′ dot-induced cell death: rescued cell viability

## N[C@@H](CCC(=O)N[C@@H](CS)C(=O)NCC(=O)O)C(=O)O [glutathione, Glutathione]
[1]
  effect on nanoparticle-induced cell death: inhibited

## Clc1cccc(CN=C2Nc3ccccc3NC23CCNCC3)c1 [liproxstatin-1, Liproxstatin-1]
Lipid ROS
  effect on C11-BODIPY staining induced by erastin: inhibits C11-BODIPY staining induced by erastin treatment
HT-1080 tumors; HT1080, particle-exposed tumors (three 60 μM i.v. doses) treated with daily i.p. liproxstatin-1 125 mg/kg, 10 days, 95% CI: 10.1-18.9
  average daily tumor growth: 14.6 mm^3
HT-1080 tumors; HT1080, CI: 13.1 to 17.6, p<0.001
  difference in average daily tumor growth, particles plus liproxstatin-1 vs particles alone: 15.3 mm^3
[1]
  effect on α-MSH-PEG-C′ dot-induced cell death: rescued cell viability

## CN1C(=O)C(Cc2c[nH]c3ccccc23)NC1=S (stereo not shown) [necrostatin-1, Necrostatin-1]
[2]
  cell death on necroptosis induction: do not undergo cell death

## Cc1c(C)c2c(c(C)c1O)CCC(C)(C(=O)O)O2 (stereo not shown) [trolox, Trolox]
[1]
  effect on nanoparticle-induced cell death: inhibited

## Ferric ammonium citrate
Amino acid-starved cells
  percent cell death (Sytox green+): sufficient to mimic α-MSH-PEG-C′ dot-induced death
[3]
  ferritin heavy chain (FTH1) expression: increased

From patent publication US11246946B2, “Methods of treatment using ultrasmall nanoparticles to induce cell death of nutrient-deprived cancer cells via ferroptosis” (priority 2015, dated 2022)
